From ChEMBL document CHEMBL3603761 (Bioorg Med Chem, 2015)
Calls of active or inactive are those of the source. The rule behind the calls is not given here.

Tests used:
[1] = biological target: T1, Autotaxin (Homo sapiens, UniProt Q13822); assay: Inhibition of human ATX phosphodiesterase expressed in Sf9 cells assessed as hydrolysis of FS-3 at 10 uM measured after 5 to 25 mins by fluorescence assay
[2] = biological target: T1, Autotaxin; assay: Irreversible inhibition of human ATX phosphodiesterase activity expressed in Sf9 cells assessed as hydrolysis of FS-3 preincubated for 2 mins before substrate addition measured 1000 fold dilution by fluorescence assay
[3] = biological target: T1, Autotaxin; assay: Inhibition of human ATX phosphodiesterase expressed in Sf9 cells assessed as hydrolysis of FS-3 measured after 5 to 25 mins by fluorescence assay
[4] = system: MeWo; assay: Cytotoxicity against human MeWo cells assessed as reduction of cell viability after 48 hrs by CellTiter-Blue assay; assay type: functional
[5] = system: MeWo; assay: Antitumor activity against human MeWo cells xenografted in athymic nude mouse at 30 mg/kg, ip administered every other day of 21 days post tumor cell injection; assay type: functional, organism-based
[6] = system: MeWo; assay: Antitumor activity against human MeWo cells xenografted in athymic nude mouse assessed as reduction of ATX level in serum at 30 mg/kg, ip administered every other day of 21 days post tumor cell injection; assay type: functional, organism-based
[7] = Cytotoxicity against human SB2 cells after 48 hrs by CellTiter-Blue assay; assay type: functional, cell-based; settings: SB2, 48 h
[8] = biological target: T1, Autotaxin; assay: Inhibition of human ATX phosphodiesterase expressed in Sf9 cells assessed as hydrolysis of FS-3 preincubated for 2 mins before substrate addition measured after 5 to 25 mins by fluorescence assay
[9] = system: PC-3; assay: Cytotoxicity against human PC3 cells after 48 hrs by CellTiter-Blue assay; assay type: functional, cell-based; settings: PC-3, 48 h
[10] = system: OVCAR-3; assay: Cytotoxicity against human OVCAR3 cells after 48 hrs by CellTiter-Blue assay; assay type: functional, cell-based; settings: OVCAR-3, 48 h
[11] = system: HT-29; assay: Cytotoxicity against human HT-29 cells after 48 hrs by CellTiter-Blue assay; assay type: functional, cell-based; settings: HT-29, 48 h
[12] = system: MeWo; assay: Cytotoxicity against human MeWo cells after 48 hrs by CellTiter-Blue assay; assay type: functional, cell-based
[13] = system: MDA-MB-231; assay: Cytotoxicity against human MDA-MB-231 cells after 48 hrs by CellTiter-Blue assay; assay type: functional, cell-based; settings: MDA-MB-231, 48 h
[14] = system: SK-OV-3; assay: Cytotoxicity against human SKOV3 cells after 48 hrs by CellTiter-Blue assay; assay type: functional, cell-based; settings: SK-OV-3, 48 h
[15] = system: MDA-MB-231; assay: Inhibition of cell migration in human MDA-MB-231 cells assessed as gap closure distance at 5 uM after 24 hrs by wound healing assay; assay type: functional; settings: MDA-MB-231, 24 h
[16] = system: OVCAR-3; assay: Inhibition of cell migration in human OVCAR3 cells assessed as gap closure distance at 5 uM after 24 hrs by wound healing assay; assay type: functional; settings: OVCAR-3, 24 h
[17] = system: SK-OV-3; assay: Inhibition of cell migration in human SKOV3 cells assessed as gap closure distance at 5 uM after 24 hrs by wound healing assay; assay type: functional, cell-based
[18] = system: MeWo; assay: Inhibition of cell migration in human MeWo cells assessed as gap closure distance at 5 uM after 24 hrs by wound healing assay; assay type: functional, cell-based
[19] = system: MDA-MB-231; assay: Inhibition of cell migration in human MDA-MB-231 cells assessed as gap closure distance at 5 uM after 24 hrs by wound healing assay in presence of 1 uM of LPA; assay type: functional, cell-based
[20] = system: OVCAR-3; assay: Inhibition of cell migration in human OVCAR3 cells assessed as gap closure distance at 5 uM after 24 hrs by wound healing assay in presence of 1 uM of LPA; assay type: functional, cell-based
[21] = system: SK-OV-3; assay: Inhibition of cell migration in human SKOV3 cells assessed as gap closure distance at 5 uM after 24 hrs by wound healing assay in presence of 1 uM of LPA; assay type: functional, cell-based
[22] = system: MeWo; assay: Inhibition of cell migration in human MeWo cells assessed as gap closure distance at 5 uM after 24 hrs by wound healing assay in presence of 1 uM of LPA; assay type: functional, cell-based
[23] = system: Mus musculus; assay: Toxicity in human MeWo cells xenografted athymic nude mouse assessed as severe dehydration at 50 mg/kg, ip administered every other day of 21 days post tumor cell injection measured on day 45; assay type: organism-based; settings: in vivo, 504 h
[24] = system: Mus musculus; assay: Toxicity in human MeWo cells xenografted athymic nude mouse assessed as mortality at 50 mg/kg, ip administered every other day of 21 days post tumor cell injection measured on day 45; assay type: organism-based; settings: in vivo, 504 h
[25] = system: Mus musculus; assay: Toxicity in human MeWo cells xenografted athymic nude mouse assessed as mortality at 50 mg/kg, ip administered every other day of 21 days post tumor cell injection up to 48 days followed by administered 40 mg/kg, ip; assay type: organism-based; settings: in vivo
[26] = system: MeWo; assay: Antitumor activity against human MeWo cells xenografted in athymic nude mouse assessed as reduction of KC/CXCL-1 level in serum at 50 mg/kg, ip administered every other day of 21 days post tumor cell injection; assay type: functional, organism-based
[27] = system: MeWo; assay: Antitumor activity against human MeWo cells xenografted in athymic nude mouse assessed as necrosis in tumor at 50 mg/kg, ip administered every other day of 21 days post tumor cell injection up to 48 days followed by administered 40 mg/kg, ip using hematoxylin and eosin staining; assay type: functional, organism-based
[28] = system: MeWo; assay: Antitumor activity against human MeWo cells xenografted in athymic nude mouse assessed as necrotic endothelial cells at 50 mg/kg, ip administered every other day of 21 days post tumor cell injection up to 48 days followed by administered 40 mg/kg, ip using hematoxylin and eosin staining; assay type: functional, organism-based
[29] = system: MeWo; assay: Antitumor activity against human MeWo cells xenografted in athymic nude mouse assessed as reduction of ATX level in serum at 50 mg/kg, ip administered every other day of 21 days post tumor cell injection; assay type: functional, organism-based

Structure (SMILES): C=C(CCCCCCCCCCCCCCCC)S(=O)(=O)c1ccccc1
- inhibition [1]: inactive
- inhibition [2]: inactive

Structure (SMILES): C=C(CCCCCCCCCCCC)S(=O)(=O)CCC[N+](C)(C)C
- Ki [3]: 1.79 µM

Structure (SMILES): O=C1S/C(=C\c2ccc(OCc3cccc(B(O)O)c3)cc2)C(=O)N1Cc1ccc(F)cc1
- Activity [4]: <25%
- Activity [5]: inactive
- Activity [6]: inactive

Structure (SMILES): C=C(CCCCCCCCCCCCCCCC)S(=O)(=O)CCC[N+](C)(C)C.[Cl-]
- IC50 [7]: 4.89 µM
- Ki [3]: 3.5 µM
- inhibition [8]: inactive
- inhibition [2]: Active
- IC50 [9]: 1.93 µM
- IC50 [10]: 4.44 µM
- IC50 [11]: 2.11 µM
- IC50 [12]: 4.08 µM
- IC50 [13]: 0.39 µM
- IC50 [14]: 6.74 µM
- inhibition at 5 µM [15]: 75%
- inhibition at 5 µM [16]: 75%
- inhibition [17]: Active
- inhibition [18]: Active
- inhibition [19]: Active
- inhibition [20]: Active
- inhibition [21]: Active
- inhibition [22]: Active
- Activity [4]: <25%
- Activity [23]: Toxic
- Activity [24]: Toxic
- Activity [25]: Non-toxic
- Activity [26]: Active
- Activity [27]: Active
- Activity [28]: Active
- Activity [29]: Active

Structure (SMILES): O=C(CCN1CCN(C(=O)OCc2cc(Cl)cc(Cl)c2)CC1)c1ccc2[nH]c(=O)oc2c1
- Activity [5]: inactive
- Activity [6]: inactive

Structure (SMILES): C=C(CCCCCC)S(=O)(=O)CCC[N+](C)(C)C
- inhibition [1]: inactive

Structure (SMILES): C=C(CCCCCCCC/C=C\CCCCCCCC)S(=O)(=O)CCC[N+](C)(C)C
- Ki [3]: 2.43 µM
